Values after ≈ are worked out from the molar mass of the structure shown.
What was measured:
Helianthus annuus [1] = assay: Herbicidal activity against Helianthus annuus (sunflower) assessed as growth reduction at 3 mg/ha; type: functional
Avena fatua [2] = assay: Herbicidal activity against Avena fatua assessed as growth reduction at 3 mg/ha; type: functional
Ipomoea hederacea [3] = assay: Herbicidal activity against Ipomoea hederacea (ivy-leaved morning glory) assessed as growth reduction at 3 mg/ha; type: functional
Setaria faberi [4] = assay: Herbicidal activity against Setaria faberi (Giant Foxtail) assessed as growth reduction at 3 mg/ha; type: functional
Synechococcus = assay: Antimicrobial activity against cyanobacteria Synechococcus PCC 6911 assessed as growth inhibition; type: functional
[5] = Inhibition of PS2 at 50 uM
[6] = Inhibition of PS2 at 100 uM
Desmodesmus subspicatus = assay: Antimicrobial activity against Scenedesmus subspicatus SAG 86.81 assessed as growth inhibition; type: functional
Lemna minor [7] = assay: Herbicidal activity against Lemna minor (common duckweed) at 50 uM; type: functional; conditions: read-out: GI
Tetradesmus obliquus = assay: Antimicrobial activity against Acutodesmus obliquus SAG 276-1 assessed as growth inhibition; type: functional
Lemna minor [8] = assay: Herbicidal activity against Lemna minor (common duckweed) at 100 uM; type: functional
Setaria faberi [9] = assay: Herbicidal activity against Setaria faberi (Giant Foxtail) assessed as growth reduction at 1 mg/ha; type: functional
Ipomoea hederacea [10] = assay: Herbicidal activity against Ipomoea hederacea (ivy-leaved morning glory) assessed as growth reduction at 1 mg/ha; type: functional
Helianthus annuus [11] = assay: Herbicidal activity against Helianthus annuus (sunflower) assessed as growth reduction at 1 mg/ha; type: functional
Avena fatua [12] = assay: Herbicidal activity against Avena fatua assessed as growth reduction at 1 mg/ha; type: functional

C[C@H]1CCC[C@H]2O[C@@H]2COc2ccc(cc2)C[C@H]2NC(=O)/C(=C/1O)C2=O [MACROCIDIN A]
growth inhibition (GI) (Helianthus annuus [1]): 50%
growth inhibition (GI) (Avena fatua [2]): 0%
growth inhibition (GI) (Ipomoea hederacea [3]): 0%
growth inhibition (GI) (Setaria faberi [4]): 65%

CCCCCC#CC#C/C=C/CC(C)C[C@@H]1C[C@H](C)/C(=C2/C(=O)C(C)N(C)C2=O)N1N (stereo not given in full) [FISCHERELLIN A]
MIC (Synechococcus): 0.5 µM (≈ 0.212 µg/mL)
inhibition [5]: 60%
inhibition [6]: 98%
MIC (Desmodesmus subspicatus): 0.5 µM (≈ 0.212 µg/mL)
inhibition of growth at 50 µM (Lemna minor [7]): 44%
MIC (Tetradesmus obliquus): 0.5 µM (≈ 0.212 µg/mL)
inhibition at 100 µM (Lemna minor [8]): 74%

C[C@@H]1/C(O)=C2/C(=O)N[C@H](Cc3ccc(cc3)OC[C@H]3O[C@@H]3CCC1O)C2=O (stereo not given in full) [MACROCIDIN B]
growth inhibition (GI) (Setaria faberi [9]): 20%
growth inhibition (GI) (Ipomoea hederacea [10]): 0%
growth inhibition (GI) (Helianthus annuus [11]): 50%
growth inhibition (GI) (Avena fatua [12]): 0%

— ChEMBL document CHEMBL3045666, “The phytotoxicity of natural tetramic acid derivatives” (Pest Manag Sci, 2011)
